Data from ChEMBL document CHEMBL1151078, “An efficient synthesis of short-chain sphingomyelin analogs and their susceptibility to hydrolysis catalyzed by sphingomyelinase” (1997).

Test system: Bacillus cereus
Assay: Initial velocity (v) of the hydrolysis catalyzed by Bacillus cereus sphingomyelinase was measured
Format: functional

| Compound | Velocity [µM/min/mg] |
| --- | --- |
| CCCCCCC[C@H](O)[C@H](COP(=O)([O-])OCC[N+](C)(C)C)NC(=O)CCCCC | 5.08 |
| CCCCC/C=C/[C@@H](O)[C@H](COP(=O)([O-])OCC[N+](C)(C)C)NC(=O)CCCCC | 136.31 |
| CCCCCCC[C@@H](O)[C@H](COP(=O)([O-])OCC[N+](C)(C)C)NC(=O)CCCCC | 109.15 |
| CCCCC/C=C/[C@H](O)[C@H](COP(=O)([O-])OCC[N+](C)(C)C)NC(=O)CCCCC | 11.17 |
